# Experimental data as given in patent US9758538B2, “Pyrimidine derivatives” (PFIZER INC., priority 2015, dated 2017).
# Target: truncated PI3Kα (p110α/iSH2 p85α), PI3KA_Act (Homo sapiens (Human), UniProt P42336)
# Experiment: PI3Kα biochemical kinase assay, fluorescence polarization format (PI3KA_Act)
# Conditions: 0.5 nM p110α/iSH2 p85, 1 mM ATP, 30 μM PIP2, 15-min preincubation; Morrison equation fit; read-out: PI3KA_Act Ki
# Protocol: Enzyme Production for Biochemical Assay: p110α-iSH2 p85α Complex (Full Length p110α and p85α iSH2)(“PI3KA Act”)
# Gene encoding p110α subunit was subcloned into polyhedrine promoter while gene encoding p85α niSH2 domains was subcloned into p10 promoter. […] Recombinant baculovirus was generated using Bac-to-Bac protocol (Life Technologies, Carlsbad, Calif.). Large scale expression was conducted in Sf21 (Life Technologies, Carlsbad, Calif.) cells at a multiplicity of infection (“MOI”)=1 for 48 hours. Cells were lyzed in 50 mM Tris pH 8.0, 250 mM NaCl, 5% glycerol, 0.25 mM TCEP, and 20 mM imidazole. The p110α-niSH2 p85α complex was purified from clarified supernatant using Immobilized Metalo Affinity Chromatography (“IMAC”). The protein was eluted from the column using 50 mM Tris pH 8.0, 200 mM NaCl, 0.25 mM TCEP, and 200 mM imidazole. Following elution p110α-niSH2 p85α complex was dialyzed against 4 liters of 50 mM Tris pH 8.0, 200 mM NaCl, 0.25 mM TCEP, and 40 mM imidazole in the presence of PreScission Protease (1:70 molar ratio of Protease to Protein) and TEV protease (1:40 molar ratio protease to protein) for 16 hours at 4° C. The protein was further purified using reverse IMAC to remove cleaved histidine tag and contaminants captured during initial IMAC purification. The mixture of p110α-iSH2 p85α complex and cleaved nSH2 was recovered in reverse IMAC 40 mM imidazole flow through and 60 mM imidazole wash fractions. Those fractions were pulled together and loaded on Superdex 200 26/60 SEC column equilibrated in 25 mM Tris, pH 8.0, 100 mM NaCl, 2% glycerol, and 2 mM TCEP.
# The enzymatic reactions were conducted in 50 μL volumes in 96-well plates. […] The reactions were incubated for 30 min at room temperature, stopped with EDTA pH 8 (10 mM final concentration). […] The plate was shaken for 30 minutes and fluorescence polarization values were measured on an LJL Analyst HT plate reader (Molecular Devices, Sunnyvale, Calif.).
# truncated PI3Kα (p110α/iSH2 p85α), PI3KA_Act, sequence (P42336 whole entry, the tested form may be a part): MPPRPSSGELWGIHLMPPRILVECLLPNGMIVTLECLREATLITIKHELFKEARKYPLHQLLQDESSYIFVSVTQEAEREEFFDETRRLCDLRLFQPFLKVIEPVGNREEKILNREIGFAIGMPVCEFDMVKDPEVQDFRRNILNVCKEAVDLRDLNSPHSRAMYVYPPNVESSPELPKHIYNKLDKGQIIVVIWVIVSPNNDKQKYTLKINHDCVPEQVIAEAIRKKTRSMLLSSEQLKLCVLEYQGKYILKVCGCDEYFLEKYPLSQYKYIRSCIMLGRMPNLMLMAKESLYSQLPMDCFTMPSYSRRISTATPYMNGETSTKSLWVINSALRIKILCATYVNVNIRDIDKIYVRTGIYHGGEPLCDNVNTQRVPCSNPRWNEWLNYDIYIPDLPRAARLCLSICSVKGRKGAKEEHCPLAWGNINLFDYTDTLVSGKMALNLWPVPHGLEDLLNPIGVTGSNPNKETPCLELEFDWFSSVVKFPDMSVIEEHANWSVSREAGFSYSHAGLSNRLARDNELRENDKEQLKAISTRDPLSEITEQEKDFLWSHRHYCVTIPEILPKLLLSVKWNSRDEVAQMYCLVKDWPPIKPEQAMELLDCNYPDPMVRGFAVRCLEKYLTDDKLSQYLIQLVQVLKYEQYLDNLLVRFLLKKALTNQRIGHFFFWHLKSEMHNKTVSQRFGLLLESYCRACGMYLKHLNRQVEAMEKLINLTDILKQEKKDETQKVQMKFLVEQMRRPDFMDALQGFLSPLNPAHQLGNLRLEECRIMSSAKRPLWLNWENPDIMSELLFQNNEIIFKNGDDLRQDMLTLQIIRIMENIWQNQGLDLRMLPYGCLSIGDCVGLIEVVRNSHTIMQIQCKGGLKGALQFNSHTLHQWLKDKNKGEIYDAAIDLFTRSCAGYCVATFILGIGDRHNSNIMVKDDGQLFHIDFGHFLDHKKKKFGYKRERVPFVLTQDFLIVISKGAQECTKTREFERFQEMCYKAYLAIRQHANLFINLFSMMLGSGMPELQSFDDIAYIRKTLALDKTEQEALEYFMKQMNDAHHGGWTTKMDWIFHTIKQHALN
row,Ki [nM],SMILES
1,0.746,"Cn1ccnc1C(=O)N1CC[C@](CO)(Nc2cc(-c3cnc(N)nc3)nc(N3CCOCC3)n2)C1 [Example 73, [(3S)-3-{[2′-amino-2-(morpholin-4-yl)-4,5′-bipyrimidin-6-yl]amino}-3-(hydroxymethyl)pyrrolidin-1-yl](1-methyl-1H-imidazol-2-yl)methanone]"
2,1.82,"CN1CCC(N2CC[C@](CO)(Nc3cc(-c4cnc(N)nc4)nc(N4CCOCC4)n3)C2)C1=O (stereo partly drawn) [Example 76, (3S)-3-{[2′-amino-2-(morpholin-4-yl)-4,5′-bipyrimidin-6-yl]amino}-3-(hydroxymethyl)-1′-methyl-1,3′-bipyrrolidin-2′-one]"
3,< 0.018,"CCCOC(=O)N1CC[C@](CO)(Nc2cc(-c3cnc(N)nc3)nc(N3CCOCC3)n2)C1 [Example 77, propyl (3S)-3-{[2′-amino-2-(morpholin-4-yl)-4,5′-bipyrimidin-6-yl]amino}-3-(hydroxymethyl)pyrrolidine-1-carboxylate]"
4,0.267,"Nc1ncc(-c2cc(N[C@@]3(CO)CCN(C(=O)N4CCCC4)C3)nc(N3CCOCC3)n2)cn1 [Example 78, [(3S)-3-{[2′-amino-2-(morpholin-4-yl)-4,5′-bipyrimidin-6-yl]amino}-3-(hydroxymethyl)pyrrolidin-1-yl](pyrrolidin-1-yl)methanone]"
5,1.94,"Nc1ncc(-c2cc(N[C@@]3(CO)CCN(C4CCNC4=O)C3)nc(N3CCOCC3)n2)cn1 (stereo partly drawn) [Example 80, (3S)-3-{[2′-amino-2-(morpholin-4-yl)-4,5′-bipyrimidin-6-yl]amino}-3-(hydroxymethyl)-1,3′-bipyrrolidin-2′-one]"
6,0.31,"Cn1cc(C(=O)N2CC[C@](CO)(Nc3cc(-c4cnc(N)nc4)nc(N4CCOCC4)n3)C2)cn1 [Example 81, [(3S)-3-{[2′-amino-2-(morpholin-4-yl)-4,5′-bipyrimidin-6-yl]amino}-3-(hydroxymethyl)pyrrolidin-1-yl](1-methyl-1H-pyrazol-4-yl)methanone]"
7,0.027,"CCOC(=O)N1CC[C@](CO)(Nc2nc(-c3cnc(N)nc3)nc(N3CCOCC3)n2)C1 [Example 82, ethyl (3S)-3-{[4-(2-aminopyrimidin-5-yl)-6-(morpholin-4-yl)-1,3,5-triazin-2-yl]amino}-3-(hydroxymethyl)pyrrolidine-1-carboxylate]"
8,0.215,"CC(C)OC(=O)N1CC[C@](CO)(Nc2nc(-c3cnc(N)nc3)nc(N3CCOCC3)n2)C1 [Example 83, propan-2-yl (3S)-3-{[4-(2-aminopyrimidin-5-yl)-6-(morpholin-4-yl)-1,3,5-triazin-2-yl]amino}-3-(hydroxymethyl)pyrrolidine-1-carboxylate]"
9,0.445,"CN1CCCC(N2CC[C@](CO)(Nc3cc(-c4cnc(N)nc4)nc(N4CCOCC4)n3)C2)C1=O (stereo partly drawn) [Example 84, 3-[(3S)-3-{[2′-amino-2-(morpholin-4-yl)-4,5′-bipyrimidin-6-yl]amino}-3-(hydroxymethyl)pyrrolidin-1-yl]-1-methylpiperidin-2-one]"
10,0.067,"Nc1ncc(-c2cc(N[C@@]3(CO)CCN(c4ccccn4)C3)nc(N3CCOCC3)n2)cn1 [Example 85, [(3S)-3-{[2′-amino-2-(morpholin-4-yl)-4,5′-bipyrimidin-6-yl]amino}-1-(pyridin-2-yl)pyrrolidin-3-yl]methanol]"
11,0.026,"Nc1ncc(-c2cc(N[C@@]3(CO)CCN(C(=O)c4ncc[nH]4)C3)nc(N3CCOCC3)n2)cn1 [Example 86, [(3S)-3-{[2′-amino-2-(morpholin-4-yl)-4,5′-bipyrimidin-6-yl]amino}-3-(hydroxymethyl)pyrrolidin-1-yl](1H-imidazol-2-yl)methanone]"
12,0.085,"Nc1ncc(-c2cc(N[C@@]3(CO)CCN(C(=O)c4ncccn4)C3)nc(N3CCOCC3)n2)cn1 [Example 87, [(3S)-3-{[2′-amino-2-(morpholin-4-yl)-4,5′-bipyrimidin-6-yl]amino}-3-(hydroxymethyl)pyrrolidin-1-yl](pyrimidin-2-yl)methanone]"
13,0.682,"Nc1ncc(-c2cc(N[C@@]3(CO)CCN(C4CCCNC4=O)C3)nc(N3CCOCC3)n2)cn1 (stereo partly drawn) [Example 88, 3-[(3S)-3-{[2′-amino-2-(morpholin-4-yl)-4,5′-bipyrimidin-6-yl]amino}-3-(hydroxymethyl)pyrrolidin-1-yl]piperidin-2-one]"
14,< 0.018,"Nc1ncc(-c2cc(N[C@@]3(CO)CCN(C(=O)N4CCC4)C3)nc(N3CCOCC3)n2)cn1 [Example 89, [(3S)-3-{[2′-amino-2-(morpholin-4-yl)-4,5′-bipyrimidin-6-yl]amino}-3-(hydroxymethyl)pyrrolidin-1-yl](azetidin-1-yl)methanone]"
15,< 0.018,"Nc1ncc(-c2cc(N[C@@]3(CO)CCN(C(=O)c4cn[nH]c4)C3)nc(N3CCOCC3)n2)cn1 [Example 90, [(3S)-3-{[2′-amino-2-(morpholin-4-yl)-4,5′-bipyrimidin-6-yl]amino}-3-(hydroxymethyl)pyrrolidin-1-yl](1H-pyrazol-4-yl)methanone]"
16,< 0.018,"Nc1ncc(-c2cc(N[C@@]3(CO)CCN(C(=O)C4CC4)C3)nc(N3CCOCC3)n2)cn1 [Example 92, [(3S)-3-{[2′-amino-2-(morpholin-4-yl)-4,5′-bipyrimidin-6-yl]amino}-3-(hydroxymethyl)pyrrolidin-1-yl](cyclopropyl)methanone]"
17,< 0.018,"Nc1ncc(-c2cc(N[C@@]3(CO)CCN(C(=O)OC4CC4)C3)nc(N3CCOCC3)n2)cn1 [Example 93, cyclopropyl (3S)-3-{[2′-amino-2-(morpholin-4-yl)-4,5′-bipyrimidin-6-yl]amino}-3-(hydroxymethyl)pyrrolidine-1-carboxylate]"
18,0.631,"CC[C@@]1(Nc2cc(-c3cnc(N)nc3)nc(N3CCOCC3)n2)CCN(C(=O)C2(F)CC2)C1 [Example 94, [(3R)-3-{[2′-amino-2-(morpholin-4-yl)-4,5′-bipyrimidin-6-yl]amino}-3-ethylpyrrolidin-1-yl](1-fluorocyclopropyl)methanone]"
19,0.412,"CCOC(=O)N1CC[C@@](CC)(Nc2cc(-c3cnc(N)nc3)nc(N3CCOCC3)n2)C1 [Example 95, ethyl (3R)-3-{[2′-amino-2-(morpholin-4-yl)-4,5′-bipyrimidin-6-yl]amino}-3-ethylpyrrolidine-1-carboxylate]"
20,< 0.018,"Nc1ncc(-c2cc(N[C@@]3(CO)CCN(C(=O)C4(F)CNC4)C3)nc(N3CCOCC3)n2)cn1 [Example 97, [(3S)-3-{[2′-amino-2-(morpholin-4-yl)-4,5′-bipyrimidin-6-yl]amino}-3-(hydroxymethyl)pyrrolidin-1-yl](3-fluoroazetidin-3-yl)methanone]"
21,0.027,"Nc1ncc(-c2nc(N[C@@]3(CO)CCN(C(=O)OCC(F)F)C3)nc(N3CCOCC3)n2)cn1 [Example 99, 2,2-difluoroethyl (3S)-3-{[4-(2-aminopyrimidin-5-yl)-6-(morpholin-4-yl)-1,3,5-triazin-2-yl]amino}-3-(hydroxymethyl)pyrrolidine-1-carboxylate]"
22,1.48,"CN(C)C(=O)CN1CC[C@](CO)(Nc2cc(-c3cnc(N)nc3)nc(N3CCOCC3)n2)C1 [Example 100, 2-[(3S)-3-{[2′-amino-2-(morpholin-4-yl)-4,5′-bipyrimidin-6-yl]amino}-3-(hydroxymethyl)pyrrolidin-1-yl]-N,N-dimethylacetamide]"
23,0.068,"Nc1ncc(-c2nc(N3CCOCC3)nc(N[C@@]3(CO)CCN(C(=O)OC4CC4)C3)c2F)cn1 [Example 101, cyclopropyl (3S)-3-{[2′-amino-5-fluoro-2-(morpholin-4-yl)-4,5′-bipyrimidin-6-yl]amino}-3-(hydroxymethyl)pyrrolidine-1-carboxylate]"
24,< 0.018,"C[C@H]1COCCN1c1nc(N[C@@]2(CO)CCN(C(=O)OC3CC3)C2)cc(-c2cnc(N)nc2)n1 [Example 102, cyclopropyl (3S)-3-({2′-amino-2-[(3S)-3-methylmorpholin-4-yl]-4,5′-bipyrimidin-6-yl}amino)-3-(hydroxymethyl)pyrrolidine-1-carboxylate]"
25,0.107,"Nc1ncc(-c2nc(N[C@@]3(CO)CCN(C(=O)OC4CC4)C3)nc(N3CCOCC3)n2)cn1 [Example 103, cyclopropyl (3S)-3-{[4-(2-aminopyrimidin-5-yl)-6-(morpholin-4-yl)-1,3,5-triazin-2-yl]amino}-3-(hydroxymethyl)pyrrolidine-1-carboxylate]"

row,SMILES,Ki [nM]
1,"Nc1ncc(-c2cc(N[C@@]3(CO)CCN(C(=O)OCC(F)F)C3)nc(N3CCOCC3)n2)cn1 [Example 79, 2,2-difluoroethyl (3S)-3-{[2′-amino-2-(morpholin-4-yl)-4,5′-bipyrimidin-6-yl]amino}-3-(hydroxymethyl)pyrrolidine-1-carboxylate]",0.021
